Assay results reported in patent US10967076B2, “Use of non-labeled sugars and detection by MRI for assessing tissue perfusion and metabolism” (The Johns Hopkins University, priority 2010, dated 2021).

Key:
[1] = system: MDA-MB-231 and MCF-7 xenografts; test: steady-state glucoCEST MRI before and after D-glucose infusion in a xenograft mouse at 9.4 T; type: in vivo, mice; conditions: offset 1.2 ppm, blood glucose about 20 mM, preliminary data, FIG. 4F
Text: Tumors are generally characterized by rapid glucose metabolism, increased tissue blood volume, and increased permeability to extravascular extracellular space (EES). We applied glucose infusion in vivo on xenografts in mice for two human breast cancer lines: less aggressive (MCF-7) and highly aggressive and metastatic (MDA-MB-231). Our MRI protocol used normal D-glucose (non-radioactive, non-hyperpolarized and not labeled with magnetic isotopes) and monitored this using glucose-based chemical exchange saturation transfer (glucoCEST) MRI. Images were compared with perfusion as assessed by dynamic contrast-enhanced (DCE) MRI and glucose uptake as assessed by FDG-PET. In-vivo animal experiments employed female SCID mice four to six weeks old. Tumor cells were implanted orthotopically in the mammary fat pad in an aseptic surgical procedure according to Institutional Animal Care and Use Committee (IACUC) guidelines. […] Following tumor cell implants, animals were monitored until recovered from anesthesia and then checked after 6 and 12 h, then daily. […]

[2] = system: MDA-MB-231 and MCF7 xenografts; test: dynamic glucoCEST MRI during D-glucose infusion in a xenograft mouse at 11.7 T; type: in vivo; conditions: FIGS. 6A-6C
Text: FIGS. 6A-6C show results for a D-glucose infusion experiment with dynamic monitoring of the MR exchange transfer signals for a mouse with two tumor xenografts (MDA-MB-231 and MCF7) at 11.7 T for which a D-glucose infusion protocol similar to the example in FIG. 4 was used.

[3] = system: MDA-MB-231 and MCF7 xenografts; test: DCE-MRI with GdDTPA (post-Gd-DTPA difference images) of the xenograft mouse; type: in vivo
Text: We applied glucose infusion in vivo on xenografts in mice for two human breast cancer lines: less aggressive (MCF-7) and highly aggressive and metastatic (MDA-MB-231). Our MRI protocol used normal D-glucose (non-radioactive, non-hyperpolarized and not labeled with magnetic isotopes) and monitored this using glucose-based chemical exchange saturation transfer (glucoCEST) MRI. Images were compared with perfusion as assessed by dynamic contrast-enhanced (DCE) MRI and glucose uptake as assessed by FDG-PET. In-vivo animal experiments employed female SCID mice four to six weeks old. Tumor cells were implanted orthotopically in the mammary fat pad in an aseptic surgical procedure according to Institutional Animal Care and Use Committee (IACUC) guidelines. For cell implantation in the mammary fat pad, mice were anesthetized with ketamine and acepromazine (6.25 mg/kg and 62.5 mg/kg) injected in a volume of 0.05 ml using a sterile insulin syringe (28.5 G needle), and a cell suspension containing 1×10^6 MDA-MB-231 cells in 0.05 ml of Hanks balanced salt solution was injected into the upper right thoracic mammary fat pad using a sterile insulin syringe (28.5 G needle). […] Following tumor cell implants, animals were monitored until recovered from anesthesia and then checked after 6 and 12 h, then daily. […]

[4] = system: MDA-MB-231 and MCF-7 xenografts; test: 18F-FDG-PET of the xenograft mouse; type: in vivo; conditions: 1 hr post-injection, FIG. 5B
Text: We applied glucose infusion in vivo on xenografts in mice for two human breast cancer lines: less aggressive (MCF-7) and highly aggressive and metastatic (MDA-MB-231). Our MRI protocol used normal D-glucose (non-radioactive, non-hyperpolarized and not labeled with magnetic isotopes) and monitored this using glucose-based chemical exchange saturation transfer (glucoCEST) MRI. Images were compared with perfusion as assessed by dynamic contrast-enhanced (DCE) MRI and glucose uptake as assessed by FDG-PET. In-vivo animal experiments employed female SCID mice four to six weeks old. Tumor cells were implanted orthotopically in the mammary fat pad in an aseptic surgical procedure according to Institutional Animal Care and Use Committee (IACUC) guidelines. For cell implantation in the mammary fat pad, mice were anesthetized with ketamine and acepromazine (6.25 mg/kg and 62.5 mg/kg) injected in a volume of 0.05 ml using a sterile insulin syringe (28.5 G needle), and a cell suspension containing 1×10^6 MDA-MB-231 cells in 0.05 ml of Hanks balanced salt solution was injected into the upper right thoracic mammary fat pad using a sterile insulin syringe (28.5 G needle). […] Following tumor cell implants, animals were monitored until recovered from anesthesia and then checked after 6 and 12 h, then daily.

In the case of `O=C[C@H](O)[C@@H](O)[C@H](O)[C@H](O)CO` [D-glucose], the “glucose uptake (MTR asymmetry histograms before and after infusion, ROIs)” value [1] is reported as “a trend towards higher glucose uptake in the malignant MDA-MB-231 tumor (ROI 1) as well as in the necrotic area in the MCF7 tumor (ROI 2)” and the “uptake (MTRasym signal changes as a function of time during infusion, rim and tumor center)” value [2] is reported as “uptake is higher in the more malignant MDA-MB-231 tumor”.

With `O=C([O-])CN(CCN(CC(=O)[O-])CC(=O)O)CCN(CC(=O)[O-])CC(=O)O.[Gd+3]` [Gd-DTPA, Gadolinium-DiethyleneTriaminePentaacetic Acid] the “visualization of the tumor mass” value ([3]; 0.2 mmole/kg GdDTPA, FIG. 5C) was “good visualization of the tumor mass relative to normal tissue” and the “highlighting of the necrotic area in the MCF7 tumor” value ([3]; Gd perfusion scan) was “did not highlight the necrotic area in the MCF7 tumor”.

For Fluorodeoxyglucose [^18F-FDG], the “glucose uptake on PET” value [4] was “the MDA-MB-231 tumor exhibits a higher glucose uptake than the MCF-7 tumor”.
